According to ChEMBL document CHEMBL2146469, “Mechanisms involved in the antinociceptive effects of 7-hydroxycoumarin” (J Nat Prod, 2011):
Calls of active or inactive are those of the source.

Experiments:
Mus musculus [1] = experiment: Antinociceptive activity in Swiss mouse inflammatory pain model assessed as reduction in mechanical hyperalgesia at 2 mg/kg, sc dosed 45 mins before complete Freund's adjuvant dosing measured 4 to 24 hrs post complete Freund's adjuvant challenge by electronic pressure-meter test; type: functional, organism-based; design: dose 2 mg/kg
Mus musculus [2] = experiment: Antinociceptive activity in Swiss mouse inflammatory pain model assessed as reduction in paw withdrawal response at 2 mg/kg, sc dosed once daily for 7 days dosed 45 mins before complete Freund's adjuvant dosing measured post complete Freund's adjuvant challenge; type: functional, organism-based; design: dose 2 mg/kg
Mus musculus [3] = experiment: Antinociceptive activity in Swiss mouse inflammatory pain model assessed as reduction in paw edema at 2 mg/kg, sc dosed once daily for 7 days dosed 45 mins before complete Freund's adjuvant dosing measured post complete Freund's adjuvant challenge; type: functional, organism-based; design: dose 2 mg/kg
Mus musculus [4] = experiment: Antinociceptive activity in Swiss mouse inflammatory pain model assessed as reduction in hyperalgesia at 0.5 mg/kg, sc dosed once daily for 7 days dosed 45 mins before carrageenan dosing measured 3 hrs post carrageenan challenge; type: functional, organism-based; design: dose 0.5 mg/kg
Mus musculus [5] = experiment: Inhibition of complete Freund's adjuvant-induced IL-1beta production in Swiss mouse at 2 mg/kg, sc dosed 45 mins before complete Freund's adjuvant dosing measured up to 24 hrs post complete Freund's adjuvant challenge by ELISA; type: functional, organism-based; design: dose 2 mg/kg
Mus musculus [6] = experiment: Inhibition of complete Freund's adjuvant-induced TNFalpha production in Swiss mouse at 2 mg/kg, sc dosed 45 mins before complete Freund's adjuvant dosing measured up to 2 hrs post complete Freund's adjuvant challenge by ELISA; type: functional, organism-based; design: dose 2 mg/kg
Mus musculus [7] = experiment: Inhibition of complete Freund's adjuvant-induced neutrophil migration to paw tissue in Swiss mouse at 2 mg/kg, sc dosed 45 mins before complete Freund's adjuvant dosing measured 3 to 4 hrs post complete Freund's adjuvant challenge by myeloperoxidase kinetic colorimetric assay; type: functional, organism-based; design: dose 2 mg/kg
Mus musculus [8] = experiment: Inhibition of carrageenan-induced neutrophil migration to paw tissue in Swiss mouse at 2 mg/kg, sc dosed 45 mins before carrageenan dosing measured 3 to 4 hrs post […] challenge by myeloperoxidase kinetic colorimetric assay; type: functional, organism-based; design: dose 2 mg/kg
Mus musculus [9] = experiment: Gastric toxicity in Swiss mouse assessed as inflammatory cell index at 10 mg/kg administered as single dose (reference value: 0.2 +/- 0.2 inflammatory cell index); type: organism-based; design: dose 10 mg/kg; conditions: in vivo
Mus musculus [10] = experiment: Gastric toxicity in Swiss mouse assessed as erosion index at 10 mg/kg administered as single dose (reference value: 0 +/- 0 erosion index); type: organism-based; design: dose 10 mg/kg; conditions: in vivo
Mus musculus [11] = experiment: Gastric toxicity in Swiss mouse assessed as edema index at 10 mg/kg administered as single dose (reference value: 0.6 +/- 0.2 edema index); type: organism-based; design: dose 10 mg/kg; conditions: in vivo
Mus musculus [12] = experiment: Gastric toxicity in Swiss mouse assessed as necrosis index at 10 mg/kg administered as single dose (reference value: 0 +/- 0 necrosis index); type: organism-based; design: dose 10 mg/kg; conditions: in vivo
Mus musculus [13] = experiment: Effect on baseline nociceptive threshold in Swiss mouse inflammatory pain model at 30 to 120 mg/kg, po dosed 45 mins before complete Freund's adjuvant dosing measured 4 to 24 hrs post complete Freund's adjuvant challenge by electronic pressure-meter test; type: functional, organism-based
Mus musculus [14] = experiment: Antinociceptive activity in Swiss mouse inflammatory pain model assessed as reduction in mechanical hyperalgesia at 30 to 120 mg/kg, po dosed 45 mins before complete Freund's adjuvant dosing measured 2 hrs post complete Freund's adjuvant challenge by electronic pressure-meter test; type: functional, organism-based
Mus musculus [15] = experiment: Antinociceptive activity in Swiss mouse inflammatory pain model assessed as reduction in mechanical hyperalgesia at 30 to 120 mg/kg, po dosed 45 mins before complete Freund's adjuvant dosing measured 6 hrs post complete Freund's adjuvant challenge by electronic pressure-meter test; type: functional, organism-based
Mus musculus [16] = experiment: Antinociceptive activity in Swiss mouse inflammatory pain model assessed as reduction in mechanical hyperalgesia at 30 to 120 mg/kg, po dosed 45 mins before complete Freund's adjuvant dosing measured 24 hrs post complete Freund's adjuvant challenge by electronic pressure-meter test; type: functional, organism-based
Mus musculus [17] = experiment: Antinociceptive activity in Swiss mouse inflammatory pain model assessed as reduction in paw withdrawal response at 60 mg/kg, po dosed once daily for 7 days dosed 45 mins before complete Freund's adjuvant dosing measured post complete Freund's adjuvant challenge; type: functional, organism-based; design: dose 60 mg/kg
Mus musculus [18] = experiment: Antinociceptive activity in Swiss mouse inflammatory pain model assessed as reduction in paw withdrawal response at 60 mg/kg, po dosed once daily for 7 days dosed 45 mins before complete Freund's adjuvant dosing measured 2 days post compound withdrawal; type: functional, organism-based; design: dose 60 mg/kg
Mus musculus [19] = experiment: Antinociceptive activity in Swiss mouse inflammatory pain model assessed as reduction in paw edema at 60 mg/kg, po dosed once daily for 7 days dosed 45 mins before complete Freund's adjuvant dosing measured post complete Freund's adjuvant challenge; type: functional, organism-based; design: dose 60 mg/kg
Mus musculus [20] = experiment: Antinociceptive activity in Swiss mouse inflammatory pain model assessed as reduction in hyperalgesia at 60 mg/kg, po dosed once daily for 7 days dosed 45 mins before carrageenan dosing measured 3 hrs post carrageenan challenge; type: functional, organism-based; design: dose 60 mg/kg
Mus musculus [21] = experiment: Antinociceptive activity in Swiss mouse inflammatory pain model assessed as reduction in hyperalgesia at 60 mg/kg, po dosed once daily for 7 days dosed 45 mins before PGE2 dosing measured 3 hrs post PGE2 challenge; type: functional, organism-based; design: dose 60 mg/kg
Mus musculus [22] = experiment: Antinociceptive activity in Swiss mouse inflammatory pain model assessed as reduction in hyperalgesia at 120 mg/kg, po dosed once daily for 7 days dosed 45 mins before PGE2 dosing measured 3 hrs post PGE2 challenge; type: functional, organism-based; design: dose 120 mg/kg
Mus musculus [23] = experiment: Inhibition of complete Freund's adjuvant-induced IL-1beta production in Swiss mouse at 60 mg/kg, po dosed 45 mins before complete Freund's adjuvant dosing measured up to 24 hrs post complete Freund's adjuvant challenge by ELISA; type: functional, organism-based; design: dose 60 mg/kg
Mus musculus [24] = experiment: Inhibition of complete Freund's adjuvant-induced TNFalpha production in Swiss mouse at 60 mg/kg, po dosed 45 mins before complete Freund's adjuvant dosing measured up to 2 hrs post complete Freund's adjuvant challenge by ELISA; type: functional, organism-based; design: dose 60 mg/kg
Mus musculus [25] = experiment: Inhibition of carrageenan-induced PGE2 production in Swiss mouse at 60 mg/kg, po dosed 45 mins before carrageenan dosing measured 3 hrs post carrageenan challenge by ELISA; type: functional, organism-based; design: dose 60 mg/kg
Mus musculus [26] = experiment: Inhibition of complete Freund's adjuvant-induced neutrophil migration to paw tissue in Swiss mouse at 60 mg/kg, po dosed 45 mins before complete Freund's adjuvant dosing measured 3 to 4 hrs post complete Freund's adjuvant challenge by myeloperoxidase kinetic colorimetric assay; type: functional, organism-based; design: dose 60 mg/kg
Mus musculus [27] = experiment: Inhibition of carrageenan-induced neutrophil migration to paw tissue in Swiss mouse at 60 mg/kg, po dosed 45 mins before carrageenan dosing measured 3 to 4 hrs post […] challenge by myeloperoxidase kinetic colorimetric assay; type: functional, organism-based; design: dose 60 mg/kg
Mus musculus [28] = experiment: Toxicity in Swiss mouse assessed as corporal mass changes at 60 mg/kg, po dosed once daily for 7 days (reference value: 0.58 +/- 0.03 g); type: organism-based; design: dose 60 mg/kg, route oral; conditions: in vivo, 168 h
Mus musculus [29] = experiment: Toxicity in Swiss mouse assessed as liver weight changes per 10 gram of body weight at 60 mg/kg, po dosed once daily for 7 days (reference value: 0.73 +/- 0.07 g/10 g body weight); type: organism-based; design: dose 60 mg/kg, route oral; conditions: in vivo, 168 h
Mus musculus [30] = experiment: Toxicity in Swiss mouse assessed as kidney weight changes per 10 gram of body weight at 60 mg/kg, po dosed once daily for 7 days (reference value: 0.06 +/- 0.00 g/10 g body weight); type: organism-based; design: dose 60 mg/kg, route oral; conditions: in vivo, 168 h
Mus musculus [31] = experiment: Toxicity in Swiss mouse assessed as heart weight changes per 10 gram of body weight at 60 mg/kg, po dosed once daily for 7 days (reference value: 0.05 +/- 0.00 g/10 g body weight); type: organism-based; design: dose 60 mg/kg, route oral; conditions: in vivo, 168 h
Mus musculus [32] = experiment: Toxicity in Swiss mouse assessed as total leukocytes level at 60 mg/kg, po dosed once daily for 7 days (reference value: 5.9 +/- 0.8 10^3/mL); type: organism-based; design: dose 60 mg/kg, route oral; conditions: in vivo, 168 h
Mus musculus [33] = experiment: Toxicity in Swiss mouse assessed as creatinine level at 60 mg/kg, po dosed once daily for 7 days (reference value: 0.26 +/- 0.05 mg/dL); type: organism-based; design: dose 60 mg/kg, route oral; conditions: in vivo, 168 h
Mus musculus [34] = experiment: Toxicity in Swiss mouse assessed as ALT level at 60 mg/kg, po dosed once daily for 7 days (reference value: 68.0 +/- 12.8 UI/L); type: organism-based; design: dose 60 mg/kg, route oral; conditions: in vivo, 168 h
Mus musculus [35] = experiment: Toxicity in Swiss mouse assessed as AST level at 60 mg/kg, po dosed once daily for 7 days (reference value: 145.7 +/- 23.4 UI/L); type: organism-based; design: dose 60 mg/kg, route oral; conditions: in vivo, 168 h
Mus musculus [36] = experiment: Gastric toxicity in Swiss mouse assessed as inflammatory cell index at 60 mg/kg administered daily with single dose (reference value: 0.2 +/- 0.2 inflammatory cell index); type: organism-based; design: dose 60 mg/kg; conditions: in vivo
Mus musculus [37] = experiment: Gastric toxicity in Swiss mouse assessed as erosion index at 60 mg/kg administered daily with single dose (reference value: 0 +/- 0 erosion index); type: organism-based; design: dose 60 mg/kg; conditions: in vivo
Mus musculus [38] = experiment: Gastric toxicity in Swiss mouse assessed as edema index at 60 mg/kg administered daily with single dose (reference value: 0.6 +/- 0.2 edema index); type: organism-based; design: dose 60 mg/kg; conditions: in vivo
Mus musculus [39] = experiment: Gastric toxicity in Swiss mouse assessed as necrosis index at 60 mg/kg administered daily with single dose (reference value: 0 +/- 0 necrosis index); type: organism-based; design: dose 60 mg/kg; conditions: in vivo
Mus musculus [40] = organism: Mus musculus; conditions: Swiss, 5 mg/kg
Description: Inhibition of carrageenan-induced PGE2 production in Swiss mouse at 5 mg/kg, po dosed 45 mins before carrageenan dosing measured 3 hrs post carrageenan challenge by ELISA

Mus musculus [41] = experiment: Antinociceptive activity in Swiss mouse inflammatory pain model assessed as reduction in hyperalgesia at 160 ug/paw dosed 45 mins before PGE2 dosing measured 3 hrs post PGE2 challenge; type: functional, organism-based

SMILES: C[C@@H]1C[C@H]2[C@@H]3CCC4=CC(=O)C=C[C@]4(C)[C@@]3(F)[C@@H](O)C[C@]2(C)[C@@]1(O)C(=O)CO
- Activity (Mus musculus [1]): Active
- Activity (Mus musculus [2]): Active
- Activity (Mus musculus [3]): Active
- Activity (Mus musculus [4]): Active
- inhibition (Mus musculus [5]): Active
- inhibition (Mus musculus [6]): Active
- inhibition (Mus musculus [7]): Active
- inhibition (Mus musculus [8]): Active

SMILES: COc1ccc2c(c1)c(CC(=O)O)c(C)n2C(=O)c1ccc(Cl)cc1 [INDOMETHACIN]
- Activity (Mus musculus [9]): 4
- Activity (Mus musculus [10]): 3
- Activity (Mus musculus [11]): 2.6
- Activity (Mus musculus [12]): 0

SMILES: O=c1ccc2ccc(O)cc2o1 [UMBELLIFERONE]
- Activity (Mus musculus [13]): inactive
- Activity (Mus musculus [14]): Dose-dependent effect
- Activity (Mus musculus [15]): Dose-dependent effect
- Activity (Mus musculus [16]): Dose-dependent effect
- Activity (Mus musculus [17]): Active
- Activity (Mus musculus [18]): inactive
- Activity (Mus musculus [19]): Active
- Activity (Mus musculus [20]): Active
- Activity (Mus musculus [21]): inactive
- Activity (Mus musculus [22]): inactive
- inhibition (Mus musculus [23]): Active
- inhibition (Mus musculus [24]): Active
- inhibition (Mus musculus [25]): Active
- inhibition (Mus musculus [26]): Active
- inhibition (Mus musculus [27]): Active
- Activity (Mus musculus [28]): 0.6 g
- Activity (Mus musculus [29]): 0.72 g
- Activity (Mus musculus [30]): 0.07 g
- Activity (Mus musculus [31]): 0.05 g
- Activity (Mus musculus [32]): 6.725 ×10³ /ml
- Activity (Mus musculus [33]): 0.27 mg/dL
- Activity (Mus musculus [34]): 51 IU/L
- Activity (Mus musculus [35]): 115 IU/L
- Activity (Mus musculus [36]): 0.4
- Activity (Mus musculus [37]): 0
- Activity (Mus musculus [38]): 0.7
- Activity (Mus musculus [39]): 0

SMILES: CS(=O)(=O)Nc1ccc([N+](=O)[O-])cc1Oc1ccccc1
- inhibition (Mus musculus [40]): Active

SMILES: Cc1c(N(C)CS(=O)(=O)O)c(=O)n(-c2ccccc2)n1C
- Activity (Mus musculus [41]): Active
